Results on one substance are retold here after US20240302353A1, “CELL CULTURE DEVICE, KIT FOR CELL CULTURE, AND CELL CULTURE METHOD” (FUJIFILM Corporation, priority 2021, published 2024).

This data set concerns intestinal epithelial cells F-hiSIEC. Put plainly: Permeation test of Lucifer yellow across intestinal epithelial cell sheet on cell culture insert. The data set is classed as in vitro ADME. Conditions: for Permeability coefficient (Papp) Average (mean): 110 μM Lucifer yellow/HBSS, 37° C., 1 hour. Here is the method: One gas absorbent (oxygen scavenger) (Anaeropack: Mitsubishi Chemical Corporation) was installed in the upper tank of the cell culture device in FIG. 1, the upper tank portion was sealed, and the sealed upper tank portion was installed on the 6-well plate, which was the lower tank portion. In addition, intestinal epithelial cells F-hiSIEC (FUJIFILM Corporation) were seeded on a cell culture insert (Millipore) coated with Matrigel, and cultured for 9 days according to a manual using F-hiSIEC Culture Medium (FUJIFILM Corporation). 150 μL of F-hiSIEC Culture Medium (FUJIFILM Corporation) was added to an upper surface of the cell culture insert on which the cells on the 9th day of the culture had been seeded, and the cell culture insert was installed in the device from a lower side of the upper tank of the device, using the insertion tool shown in FIG. 5. While sandwiching the cell culture insert, 1 mL of a culture medium was added to a well plate of the lower tank, the upper tank portion of the device was installed in the well plate, and the entire device was placed in a CO2 incubator for culture for 72 hours. After the culture, a trans-epithelial electrical resistance (TEER) value of the intestinal epithelial cells was measured with an EVOM2 system. In addition, the permeation rate (Papp) of Lucifer yellow and the gene expression of various intestinal epithelial cell markers were compared with cells cultured under aerobic conditions in both the upper tank and the lower tank. The aerobic conditions in the upper tank and the lower tank mean cells cultured by installing a lid attached to the well plate without using the co-culture device. In the permeation test of Lucifer yellow, the upper and lower culture media in the insert containing the cells are substituted with HBSS and incubated at 37° C. for 1 hour. […] After 1 hour, the amount of substance which had passed through the lower part of the cell culture insert was quantified by a plate reader (Enspire, PerkinElmer Inc.), and the permeation rate and the permeability coefficient (Papp) were calculated.

Consider Lucifer yellow, for which the “Permeability coefficient (Papp) Average (mean)” value is 1.54 ×10⁻⁶ cm/s (F-hiSIEC cells cultured 72 hours in the cell culture device (upper tank anaerobic, lower tank aerobic)); 0.7 ×10⁻⁶ cm/s (F-hiSIEC cells cultured 72 hours under aerobic conditions in both upper and lower tank (no device)). For the same substance, where the note is “anaerobic vs aerobic cultured F-hiSIEC cells, 72 hours culture”, the “Increase of Papp in anaerobic cultured cells as compared with aerobic cells” value was “approximately 2 times”.
